Laboratory results taken from patent US20100267561A1, “HERBICIDAL PYRIDAZINONE DERIVATIVES” (priority 2007, published 2010).

Legend:
Assay type in all cases: in vivo
[1] = tested on: spring barley (Hordeum vulgare); experiment: Test C pre-/postemergence plant response
Procedure, shortened: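 Visual rating vs untreated controls, 0 (no effect) to 100 (complete control), after 15–25 days in a controlled growth environment. Pre- and postemergence treatments; post plants at 1- to 4-leaf stage, 2–18 cm. Formulation: non-phytotoxic solvent mix plus surfactant.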

[2] = tested on: common chickweed (Stellaria media); experiment: Test E pre-/postemergence plant response; conditions: Postemergence, scale 0 to 100
Excerpt: (§1) Seeds of plant species selected from bermudagrass (Cynodon dactylon), Surinam grass (Brachiaria decumbens), large crabgrass (Digitaria sanguinalis), green foxtail (Setaria viridis), goosegrass (Eleusine indica), johnsongrass (Sorghum halepense), kochia (Kochia scoparia), pitted morningglory (Ipomoea lacunosa), purple nutsedge (Cyperus rotundus), common ragweed (Ambrosia elation), black mustard (Brassica nigra), guineagrass (Panicum maximum), dallisgrass (Paspalum dilatatum), barnyardgrass (Echinochloa crus-galli), southern (S.) sandbur (Cenchrus echinatus), common sowthistle (Sonchus oleraceous), prickly sida (Sida spinosa), Italian ryegrass (Lolium multiflorum), common purslane (Portulaca oleracea), broadleaf signalgrass (Brachiaria platyphylla), common groundsel (Senecio vulgaris), common chickweed (Stellaria media), Virginia (V.) dayflower (Commelina virginica), tropical (T.) spiderwort (Commelina benghalensis), annual bluegrass (Poa annua), naked crabgrass (Digitaria nuda), itchgrass (Rottboellia cochinchinensis), quackgrass (Elytrigia repens), Canada horseweed (Conyza canadensis), field bindweed (Convolvulus arvensis), spanishneedles (Bidens bipinnata), common mallow (Malva sylvestris) and Russian thistle (Salsola kali) were planted and treated preemergence with test chemicals formulated in a non-phytotoxic solvent mixture which included a surfactant. At the same time, plants selected from these weed species were treated with postemergence applications of some of the test chemicals formulated in the same manner. Plants ranged in height from 2 to 18 cm (1- to 4-leaf stage) for postemergence treatments.
(§2) Treated plants and controls were maintained in a greenhouse for 14 to 21 days, after which time all species were compared to controls and visually evaluated. Plant response ratings, summarized in Table E, are based on a scale of 0 to 100 where 0 is no effect and 100 is complete control. A dash (-) response means no test result.

[3] = tested on: green foxtail (Setaria viridis); experiment: Test E pre-/postemergence plant response; conditions: scale 0 to 100
Excerpt: as §1, §2

[4] = tested on: itchgrass (Rottboellia cochinchinensis); experiment: Test E pre-/postemergence plant response; conditions: scale 0 to 100
Excerpt: as §1, §2

[5] = tested on: naked crabgrass (Digitaria nuda); experiment: Test E pre-/postemergence plant response; conditions: scale 0 to 100
Excerpt: as §1, §2

[6] = tested on: bermudagrass (Cynodon dactylon); experiment: Test E pre-/postemergence plant response; conditions: scale 0 to 100
Excerpt: as §1, §2

[7] = tested on: johnsongrass (Sorghum halepense); experiment: Test E pre-/postemergence plant response; conditions: scale 0 to 100
Excerpt: as §1, §2

[8] = tested on: barnyardgrass (Echinochloa crus-galli); experiment: Test E pre-/postemergence plant response
Excerpt: as §1, §2

[9] = tested on: common mallow (Malva sylvestris); experiment: Test E pre-/postemergence plant response; conditions: Postemergence, scale 0 to 100
Excerpt: as §1, §2

[10] = tested on: annual bluegrass (Poa annua); experiment: Test E pre-/postemergence plant response; conditions: scale 0 to 100
Excerpt: as §1, §2

[11] = tested on: dallisgrass (Paspalum dilatatum); experiment: Test E pre-/postemergence plant response; conditions: scale 0 to 100
Excerpt: as §1, §2

[12] = tested on: broadleaf signalgrass (Brachiaria platyphylla); experiment: Test E pre-/postemergence plant response; conditions: scale 0 to 100
Excerpt: as §1, §2

CCc1cc(-c2ccc(C(F)(F)F)cc2)nn1-c1c(O)cnn(C)c1=O [Compound 11, 4-[5-ethyl-3-[4-(trifluoromethyl)phenyl]-1H-pyrazol-1-yl]-5-hydroxy-2-methyl-3(2H)-pyridazinone]
0: Plant response rating, Chickweed ([2]; 4 g ai/ha) | Plant response rating, Chickweed ([2]; 8 g ai/ha) | Plant response rating, Chickweed ([2]; 16 g ai/ha) | Plant response rating, Chickweed ([2]; 31 g ai/ha) | Plant response rating, Foxtail, Green ([3]; Preemergence, 4 g ai/ha) | Plant response rating, Itchgrass ([4]; 4 g ai/ha, Postemergence) | Plant response rating, Itchgrass ([4]; Preemergence, 4 g ai/ha) | Plant response rating, Barnyardgrass ([8]; Preemergence, 4 g ai/ha, scale 0 to 100, 0 no effect, 100 complete control) | Plant response rating, Mallow ([9]; 4 g ai/ha) | Plant response rating, Mallow ([9]; 8 g ai/ha) | Plant response rating, Mallow ([9]; 16 g ai/ha) | Plant response rating, Mallow ([9]; 31 g ai/ha) | Plant response rating, Bluegrass ([10]; 4 g ai/ha, Postemergence) | Plant response rating, Bluegrass ([10]; 8 g ai/ha, Preemergence) | Plant response rating, Bluegrass ([10]; 16 g ai/ha, Preemergence) | Plant response rating, Bluegrass ([10]; 31 g ai/ha, Preemergence) | Plant response rating, Bluegrass ([10]; Postemergence, 8 g ai/ha) | Plant response rating, Bluegrass ([10]; Postemergence, 16 g ai/ha) | Plant response rating, Bluegrass ([10]; Postemergence, 31 g ai/ha) | Plant response rating, Bluegrass ([10]; Preemergence, 4 g ai/ha) | Plant response rating, Signalgrass ([12]; Preemergence, 4 g ai/ha)
40: Plant response rating, Crabgrass, Naked ([5]; 8 g ai/ha, Preemergence) | Plant response rating, Bermudagrass ([6]; 16 g ai/ha, Preemergence)
70: Plant response rating, Barley, Spring ([1]; Preemergence, 31 g ai/ha, scale 0 to 100 (0 no effect, 100 complete control))
85: Plant response rating, Itchgrass ([4]; Postemergence, 16 g ai/ha) | Plant response rating, Dallisgrass ([11]; 31 g ai/ha, Preemergence)
20: Plant response rating, Barley, Spring ([1]; Preemergence, 8 g ai/ha, scale 0 to 100 (0 no effect, 100 complete control)) | Plant response rating, Dallisgrass ([11]; 8 g ai/ha, Preemergence)
98: Plant response rating, Barley, Spring ([1]; Postemergence, 62 g ai/ha, scale 0 to 100, 0 no effect, 100 complete control) | Plant response rating, Foxtail, Green ([3]; 16 g ai/ha, Preemergence) | Plant response rating, Foxtail, Green ([3]; 31 g ai/ha, Preemergence) | Plant response rating, Foxtail, Green ([3]; Postemergence, 16 g ai/ha) | Plant response rating, Itchgrass ([4]; Postemergence, 31 g ai/ha) | Plant response rating, Crabgrass, Naked ([5]; Postemergence, 31 g ai/ha) | Plant response rating, Barnyardgrass ([8]; 31 g ai/ha, Preemergence, scale 0 to 100)
10: Plant response rating, Bermudagrass ([6]; 4 g ai/ha, Postemergence) | Plant response rating, Dallisgrass ([11]; Preemergence, 4 g ai/ha)
35: Plant response rating, Bermudagrass ([6]; Postemergence, 8 g ai/ha) | Plant response rating, Dallisgrass ([11]; 16 g ai/ha, Preemergence)
100: Plant response rating, Barley, Spring ([1]; Preemergence, 62 g ai/ha, scale 0 to 100, 0 no effect, 100 complete control) | Plant response rating, Foxtail, Green ([3]; Postemergence, 31 g ai/ha) | Plant response rating, Crabgrass, Naked ([5]; 31 g ai/ha, Preemergence) | Plant response rating, Bermudagrass ([6]; 31 g ai/ha, Preemergence) | Plant response rating, Johnsongrass ([7]; Postemergence, 8 g ai/ha) | Plant response rating, Johnsongrass ([7]; Postemergence, 16 g ai/ha) | Plant response rating, Johnsongrass ([7]; Postemergence, 31 g ai/ha) | Plant response rating, Barnyardgrass ([8]; Postemergence, 8 g ai/ha, scale 0 to 100) | Plant response rating, Barnyardgrass ([8]; Postemergence, 16 g ai/ha, scale 0 to 100) | Plant response rating, Barnyardgrass ([8]; Postemergence, 31 g ai/ha, scale 0 to 100) | Plant response rating, Signalgrass ([12]; 31 g ai/ha, Preemergence) | Plant response rating, Signalgrass ([12]; Postemergence, 31 g ai/ha)
95: Plant response rating, Barley, Spring ([1]; Postemergence, 16 g ai/ha, scale 0 to 100, 0 no effect, 100 complete control) | Plant response rating, Barley, Spring ([1]; Postemergence, 31 g ai/ha, scale 0 to 100, 0 no effect, 100 complete control) | Plant response rating, Crabgrass, Naked ([5]; 16 g ai/ha, Preemergence) | Plant response rating, Crabgrass, Naked ([5]; Postemergence, 16 g ai/ha) | Plant response rating, Bermudagrass ([6]; Postemergence, 31 g ai/ha) | Plant response rating, Johnsongrass ([7]; 4 g ai/ha, Postemergence) | Plant response rating, Johnsongrass ([7]; 31 g ai/ha, Preemergence)
25: Plant response rating, Crabgrass, Naked ([5]; 4 g ai/ha, Postemergence) | Plant response rating, Bermudagrass ([6]; 8 g ai/ha, Preemergence)
65: Plant response rating, Itchgrass ([4]; 16 g ai/ha, Preemergence)
60: Plant response rating, Foxtail, Green ([3]; 4 g ai/ha, Postemergence) | Plant response rating, Dallisgrass ([11]; 4 g ai/ha, Postemergence)
30: Plant response rating, Barley, Spring ([1]; Preemergence, 16 g ai/ha, scale 0 to 100 (0 no effect, 100 complete control))
90: Plant response rating, Foxtail, Green ([3]; Postemergence, 8 g ai/ha) | Plant response rating, Crabgrass, Naked ([5]; Postemergence, 8 g ai/ha) | Plant response rating, Johnsongrass ([7]; 16 g ai/ha, Preemergence) | Plant response rating, Barnyardgrass ([8]; 4 g ai/ha, Postemergence, scale 0 to 100) | Plant response rating, Barnyardgrass ([8]; 16 g ai/ha, Preemergence, scale 0 to 100) | Plant response rating, Dallisgrass ([11]; Postemergence, 16 g ai/ha) | Plant response rating, Dallisgrass ([11]; Postemergence, 31 g ai/ha) | Plant response rating, Signalgrass ([12]; 4 g ai/ha, Postemergence) | Plant response rating, Signalgrass ([12]; 16 g ai/ha, Preemergence) | Plant response rating, Signalgrass ([12]; Postemergence, 8 g ai/ha) | Plant response rating, Signalgrass ([12]; Postemergence, 16 g ai/ha)
80: Plant response rating, Barley, Spring ([1]; Postemergence, 8 g ai/ha, scale 0 to 100, 0 no effect, 100 complete control) | Plant response rating, Itchgrass ([4]; 31 g ai/ha, Preemergence) | Plant response rating, Bermudagrass ([6]; Postemergence, 16 g ai/ha)
15: Plant response rating, Bermudagrass ([6]; Preemergence, 4 g ai/ha)
75: Plant response rating, Itchgrass ([4]; Postemergence, 8 g ai/ha) | Plant response rating, Johnsongrass ([7]; Preemergence, 4 g ai/ha) | Plant response rating, Barnyardgrass ([8]; 8 g ai/ha, Preemergence, scale 0 to 100) | Plant response rating, Dallisgrass ([11]; Postemergence, 8 g ai/ha)
50: Plant response rating, Foxtail, Green ([3]; 8 g ai/ha, Preemergence)
